According to ChEMBL document CHEMBL5230104, “Systemic review on B-RafV600E mutation as potential therapeutic target for the treatment of cancer” (Eur J Med Chem, 2020):
One block for each compound: values may come before it.

Columns and labels:
[1] = Inhibition of full length GST tagged mouse B-Raf V600E mutant preincubated for 1 hr and measured after 25 mins in presence of ATP
[2] = target: Serine/threonine-protein kinase B-raf (Mus musculus, UniProt P28028); test: Inhibition of full length GST tagged mouse wild type B-Raf preincubated for 1 hr and measured after 25 mins in presence of ATP
Serine/threonine-protein kinase B-raf (Mus musculus, UniProt P28028), sequence (P28028 whole entry): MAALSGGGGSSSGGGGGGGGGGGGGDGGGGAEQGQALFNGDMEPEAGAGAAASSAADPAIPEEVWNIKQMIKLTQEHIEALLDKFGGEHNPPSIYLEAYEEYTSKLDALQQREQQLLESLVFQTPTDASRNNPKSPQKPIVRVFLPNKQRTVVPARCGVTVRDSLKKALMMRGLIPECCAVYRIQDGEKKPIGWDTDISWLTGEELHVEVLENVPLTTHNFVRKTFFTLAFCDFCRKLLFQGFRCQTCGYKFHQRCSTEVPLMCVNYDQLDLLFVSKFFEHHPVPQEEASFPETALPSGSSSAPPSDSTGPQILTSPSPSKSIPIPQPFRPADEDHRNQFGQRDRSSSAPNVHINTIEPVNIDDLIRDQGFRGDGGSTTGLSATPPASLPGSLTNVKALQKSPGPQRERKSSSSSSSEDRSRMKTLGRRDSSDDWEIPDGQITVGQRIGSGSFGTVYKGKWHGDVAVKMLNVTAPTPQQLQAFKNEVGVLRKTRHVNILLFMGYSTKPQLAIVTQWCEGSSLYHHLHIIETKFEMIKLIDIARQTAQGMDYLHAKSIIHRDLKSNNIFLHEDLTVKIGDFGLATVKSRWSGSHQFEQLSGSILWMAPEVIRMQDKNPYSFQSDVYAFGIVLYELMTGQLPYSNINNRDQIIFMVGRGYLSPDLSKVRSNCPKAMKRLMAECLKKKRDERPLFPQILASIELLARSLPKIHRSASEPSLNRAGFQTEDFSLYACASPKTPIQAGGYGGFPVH

A-375 [3] = test: Antiproliferative activity against human A-375 cells incubated for 48 hrs by MTT based colorimetric method; format: functional, cell-based; conditions: A-375, 48 h
WM 266-4 [4] = test: Antiproliferative activity against human WM266-4 cells incubated for 48 hrs by MTT based colorimetric method; format: functional, cell-based; conditions: WM 266-4, 48 h
[5] = target: T1, Serine/threonine-protein kinase B-raf (Homo sapiens, UniProt P15056, V600E); test: (§1) Inhibition of B-Raf V600E mutant (unknown origin)
Target sequence in this assay (P15056 whole entry V600E): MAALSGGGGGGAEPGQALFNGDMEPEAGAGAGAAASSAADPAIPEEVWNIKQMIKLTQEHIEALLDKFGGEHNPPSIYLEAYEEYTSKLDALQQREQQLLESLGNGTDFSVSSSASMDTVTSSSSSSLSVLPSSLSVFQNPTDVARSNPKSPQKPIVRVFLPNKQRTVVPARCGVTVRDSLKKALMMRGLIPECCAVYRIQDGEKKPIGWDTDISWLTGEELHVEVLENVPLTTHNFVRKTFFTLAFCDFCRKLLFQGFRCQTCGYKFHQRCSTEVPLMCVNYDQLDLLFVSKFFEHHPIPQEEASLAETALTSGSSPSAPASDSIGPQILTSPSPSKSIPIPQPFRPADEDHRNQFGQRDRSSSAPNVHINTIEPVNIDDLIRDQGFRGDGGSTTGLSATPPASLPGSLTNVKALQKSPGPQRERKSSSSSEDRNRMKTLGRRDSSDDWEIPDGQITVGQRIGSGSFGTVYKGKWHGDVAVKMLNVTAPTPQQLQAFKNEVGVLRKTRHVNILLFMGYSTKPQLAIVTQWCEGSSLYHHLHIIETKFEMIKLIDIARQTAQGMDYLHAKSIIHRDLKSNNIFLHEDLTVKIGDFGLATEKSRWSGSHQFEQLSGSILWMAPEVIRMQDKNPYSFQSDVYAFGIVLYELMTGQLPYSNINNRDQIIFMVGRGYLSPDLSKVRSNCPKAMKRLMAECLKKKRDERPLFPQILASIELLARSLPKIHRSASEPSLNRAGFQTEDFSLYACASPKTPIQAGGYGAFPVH

[6] = target: T2, Serine/threonine-protein kinase B-raf (Homo sapiens, UniProt P15056); test: Inhibition of wild type B-Raf (unknown origin)
T2 sequence (P15056 whole entry): as the sequence (P15056 whole entry V600E) above, with E600V counted along it

[7] = test system: Serine/threonine-protein kinase B-raf (Homo sapiens), P15056 [V600E]; test: Inhibition of B-Raf V600E mutant (unknown origin) at 10 uM relative to control
Serine/threonine-protein kinase B-raf (Homo sapiens), P15056 [V600E], sequence (P15056 whole entry V600E): as the sequence (P15056 whole entry V600E) above

SR = test: Anticancer activity against human SR cells assessed as cell growth proliferation; format: functional, cell-based
HOP-92 = test: Anticancer activity against human HOP-92 cells assessed as cell growth proliferation; format: functional, cell-based
NCI-H522 = test: Anticancer activity against human NCI-H522 cells assessed as cell growth proliferation; format: functional, cell-based
HT-29 [8] = test: Anticancer activity against human HT-29 cells assessed as cell growth proliferation; format: functional, cell-based
SW-620 = test: Anticancer activity against human SW620 cells assessed as cell growth proliferation; format: functional, cell-based
SNB-75 = test: Anticancer activity against human SNB-75 cells assessed as cell growth proliferation; format: functional, cell-based
A-375 [9] = test: Anticancer activity against human A-375 cells assessed as cell growth proliferation; format: functional, cell-based
SK-MEL-5 = test: Anticancer activity against human SK-MEL-5 cells assessed as cell growth proliferation; format: functional, cell-based
OVCAR-3 = test: Anticancer activity against human OVCAR-3 cells assessed as cell growth proliferation; format: functional, cell-based
UO-31 = test: Anticancer activity against human UO-31 cells assessed as cell growth proliferation; format: functional, cell-based
PC-3 = test: Anticancer activity against human PC-3 cells assessed as cell growth proliferation; format: functional, cell-based
MDA-MB-468 [10] = test: Anticancer activity against human MDA-MB-468 cells assessed as cell growth proliferation; format: functional, cell-based
[11] = target: T2, Serine/threonine-protein kinase B-raf; test: Inhibition of B-Raf (unknown origin)
HT-29 [12] = test: Antiproliferative activity against human HT-29 cells assessed as cell growth proliferation; format: functional, cell-based
[13] = test system: Serine/threonine-protein kinase B-raf (Homo sapiens), P15056 [V600E]; test: as §1
A-375 [14] = test: Cytotoxicity against human A-375 cells; format: functional, cell-based
HUVEC = test: Cytotoxicity against HUVEC cells; format: functional, cell-based; conditions: Homo sapiens
A-375 [15] = test: Antitumor activity against human A-375 cells xenografted in mouse model assessed as tumor growth inhibition at 50 mg/kg relative to control; format: functional; design: scale not given: the % may be the effect or the level left
[16] = target: T1, Serine/threonine-protein kinase B-raf; test: Binding affinity to B-Raf V600E mutant (unknown origin)
Target sequence in this assay (P15056 2-766 V600E limits assumed): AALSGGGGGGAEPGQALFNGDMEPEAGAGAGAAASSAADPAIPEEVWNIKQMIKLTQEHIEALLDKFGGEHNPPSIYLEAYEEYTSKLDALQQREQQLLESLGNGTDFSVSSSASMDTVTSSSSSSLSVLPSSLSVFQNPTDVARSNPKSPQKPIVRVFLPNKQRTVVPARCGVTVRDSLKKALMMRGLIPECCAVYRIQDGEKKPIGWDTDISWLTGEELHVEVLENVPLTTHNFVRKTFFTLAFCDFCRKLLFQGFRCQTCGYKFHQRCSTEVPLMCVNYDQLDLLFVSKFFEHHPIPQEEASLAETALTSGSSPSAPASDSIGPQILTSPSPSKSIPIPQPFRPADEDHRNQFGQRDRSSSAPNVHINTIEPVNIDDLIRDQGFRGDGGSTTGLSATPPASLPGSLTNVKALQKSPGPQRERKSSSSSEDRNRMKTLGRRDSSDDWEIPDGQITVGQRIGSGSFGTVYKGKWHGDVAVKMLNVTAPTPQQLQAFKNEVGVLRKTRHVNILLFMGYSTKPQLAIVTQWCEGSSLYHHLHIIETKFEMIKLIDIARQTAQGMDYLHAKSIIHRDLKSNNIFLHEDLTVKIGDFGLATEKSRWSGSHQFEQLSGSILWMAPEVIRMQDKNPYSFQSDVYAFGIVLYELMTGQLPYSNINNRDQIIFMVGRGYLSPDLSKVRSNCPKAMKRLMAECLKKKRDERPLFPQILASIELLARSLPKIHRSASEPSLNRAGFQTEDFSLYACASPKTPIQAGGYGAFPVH

RPMI-8226 = test: Antiproliferative activity against human RPMI-8226 cells; format: functional, cell-based
K562 [17] = test: Antiproliferative activity against human K562 cells; format: functional, cell-based
MDA-MB-468 [18] = test: Antiproliferative activity against human MDA-MB-468 cells; format: functional, cell-based
[19] = target: T2, Serine/threonine-protein kinase B-raf; test: Inhibition of human wild type B-Raf (433 to 726 residues) expressed in Escherichia coli BL21 cells by ELISA based assay
[20] = target: T1, Serine/threonine-protein kinase B-raf; test: Inhibition of human B-Raf V600E mutant (433 to 726 residues) expressed in Escherichia coli BL21 cells by ELISA based assay
Target sequence in this assay (P15056 2-766 V600E limits assumed): as above

A-375 [21] = test: Antiproliferative activity against human A-375 cells incubated for 24 hrs by MTT assay; format: functional, cell-based; conditions: A-375, 24 h
[22] = Antiproliferative activity against human WM1361 cells incubated for 24 hrs by MTT assay; format: functional, cell-based; conditions: WM1361, 24 h
A-375 [23] = test: Antiproliferative activity against human A-375 cells incubated for 72 hrs by celltiter glo assay; format: functional, cell-based; conditions: A-375, 72 h
WM-115 = test: Antiproliferative activity against human WM-115 cells incubated for 72 hrs by celltiter glo assay; format: functional, cell-based; conditions: WM-115, 72 h
COLO 205 = test: Antiproliferative activity against human COLO 205 cells incubated for 72 hrs by celltiter glo assay; format: functional, cell-based; conditions: COLO 205, 72 h
SW1417 = test: Antiproliferative activity against human SW1417 cells incubated for 72 hrs by celltiter glo assay; format: functional, cell-based; conditions: SW1417, 72 h
RKO = test: Antiproliferative activity against human RKO cells incubated for 72 hrs by celltiter glo assay; format: functional, cell-based
K562 [24] = test: Anticancer activity against human K562 cells; format: functional, cell-based
HCT-116 = test: Anticancer activity against human HCT-116 cells; format: functional, cell-based
A549 = test: Anticancer activity against human A549 cells; format: functional, cell-based
SK-MEL-2 = test: Anticancer activity against human SK-MEL-2 cells; format: functional, cell-based
MV4-11 = test: Anticancer activity against human MV4-11 cells; format: functional, cell-based
[25] = target: T2, Serine/threonine-protein kinase B-raf; test: Inhibition of wild type B-Raf (unknown origin) incubated for 1 hr by ELISA based luminescence assay
[26] = target: T1, Serine/threonine-protein kinase B-raf; test: Inhibition of B-Raf V600E mutant (unknown origin) incubated for 1 hr by ELISA based luminescence assay
Target sequence in this assay (P15056 2-766 V600E limits assumed): as above

[27] = target: T2, Serine/threonine-protein kinase B-raf; test: Inhibition of wild type B-Raf (unknown origin) by hotspot kinase assay
[28] = target: T1, Serine/threonine-protein kinase B-raf; test: Inhibition of B-Raf V600E mutant (unknown origin) by hotspot kinase assay
Target sequence in this assay (P15056 2-766 V600E limits assumed): as above

SK-MEL-28 = test: Antiproliferative activity against human SK-MEL-28 cells; format: functional, cell-based
A-375 [29] = test: Antiproliferative activity against human A-375 cells; format: functional, cell-based
[30] = Antiproliferative activity against human WM1361 cells measured after 48 hrs by MTT assay; format: functional, cell-based; conditions: WM1361, 48 h
A-375 [31] = test: Antiproliferative activity against human A-375 cells measured after 48 hrs by MTT assay; format: functional, cell-based; conditions: A-375, 48 h
WM 266-4 [32] = test: Antiproliferative activity against human WM266-4 cells measured after 48 hrs by MTT assay; format: functional, cell-based; conditions: WM 266-4, 48 h

SMILES: COc1ccc(-n2cc(Nc3cccc4[nH]ncc34)cn2)cc1
- IC50 [1]: 0.04 µM
- IC50 [2]: 0.77 µM
- IC50 (A-375 [3]): 0.34 µM
- IC50 (WM 266-4 [4]): 0.38 µM

SMILES: CCCCN1CCN(Oc2cc3nccc(Oc4ccc(NS(=O)(=O)c5cc(F)ccc5F)cc4F)c3cc2OC)CC1
- IC50 [5]: 0.091 µM
- IC50 [6]: 0.1 µM

- inhibition [7]: 100%
- IC50 (NCI-H522): 0.27 µM
- IC50 (HT-29 [8]): 0.38 µM
- IC50 (SW-620): 0.34 µM
- IC50 (A-375 [9]): 0.82 µM
- IC50 (SK-MEL-5): 0.51 µM
- IC50 (OVCAR-3): 0.35 µM
- IC50 (PC-3): 0.45 µM
- IC50 (MDA-MB-468 [10]): 0.27 µM
SMILES: CCN1CCN(CCC(=O)Nc2cccc(-n3cc(-c4ccncc4)c(-c4ccc(Cl)c(OC)c4)n3)c2)CC1
- IC50 (SR): 0.43 µM
- IC50 (HOP-92): 0.78 µM
- IC50 (SNB-75): 0.39 µM
- IC50 (UO-31): 0.92 µM

SMILES: COc1ccc(-c2n[nH]c(/N=C/c3ccc(O)c(OC)c3)n2)cc1
- IC50 [11]: 0.7 µM
- IC50 (HT-29 [12]): 1.3 µM

SMILES: CNC(=O)c1nc2ccc(C(=O)c3cccc(NC(=O)Nc4ccc(Cl)c(C(F)(F)F)c4)c3)cc2[nH]1
- IC50 [13]: 0.0578 µM
- IC50 (A-375 [14]): 3.62 µM
- IC50 (HUVEC): 12.5 µM
- Activity (A-375 [15]): 17.99%

SMILES: COc1cccc(-c2nn(-c3ccccc3)cc2-c2ccncc2)c1
- IC50 [16]: 1.44 µM
- IC50 (RPMI-8226): 1.71 µM
- IC50 (K562 [17]): 3.42 µM
- IC50 (MDA-MB-468 [18]): 6.7 µM

SMILES: COC(=O)c1ccccc1-c1ccc(/C=C/[N+](=O)[O-])o1
- IC50 [19]: 1.38 µM
- IC50 [20]: 1.96 µM

SMILES: Cc1ccc(-n2cc(NC(=O)c3c[nH]c4ccccc34)cn2)cc1
- IC50 [1]: 0.1 µM
- IC50 [2]: 0.92 µM
- IC50 (A-375 [21]): 0.93 µM
- IC50 [22]: 10 µM

- IC50 (A-375 [23]): 0.003 µM
- IC50 (COLO 205): 0.005 µM
- IC50 (SW1417): 0.208 µM
SMILES: CC(=O)Nc1cc(-c2sc(C3CCN(C4CC4)CC3)nc2-c2cccc(NS(=O)(=O)c3cc(F)ccc3F)c2F)ccn1
- IC50 (WM-115): 0.148 µM
- IC50 (RKO): 2.27 µM

SMILES: O=C(Nc1ccc(Oc2ccc(C(=O)c3ncc[nH]3)cc2)cc1)Nc1ccc(Cl)c(C(F)(F)F)c1
- IC50 [5]: 0.086 µM
- IC50 [6]: 0.134 µM
- IC50 (K562 [24]): 9.13 µM
- IC50 (HCT-116): 10.9 µM
- IC50 (A549): 9.11 µM
- IC50 (SK-MEL-2): 5.4 µM
- IC50 (MV4-11): 0.38 µM

SMILES: Cc1cnc2[nH]cc(C(=O)c3c(F)ccc(N[S+]([O-])C(C)C)c3F)c2c1 (configuration not stated)
- IC50 [25]: 0.2 µM
- IC50 [26]: 0.054 µM

SMILES: COc1cc(-c2nn(-c3ccc(NC(=O)CN4CCOCC4)cc3)cc2-c2ccncc2)ccc1Cl
- IC50 [27]: 0.536 µM
- IC50 [28]: 0.00298 µM
- IC50 (SK-MEL-28): 2.21 µM
- IC50 (A-375 [29]): 1.82 µM

- IC50 [1]: 0.18 µM
- IC50 (A-375 [31]): 2.04 µM
SMILES: COc1ccc(S(=O)(=O)Nc2cc(-c3ccc(C)cc3)[nH]n2)cc1
- IC50 [30]: 10.1 µM
- IC50 (WM 266-4 [32]): 1.58 µM
